From patent US9844226B2 (AJINOMOTO CO., INC., priority 2009, dated 2017)
Entries after “also recorded” stand apart in the source; their conditions may differ.

Columns and labels:
panelists [1] = experiment: Strength of kokumi-imparting activity by Point of Subjective Equality (PSE), limit-determining technique; assay type: in vivo, human; conditions: from PSE
Protocol: The intensity of the kokumi-imparting activity of γ-Glu-Abu was determined by Point of Subjective Equality (PSE) according to the limit-determining technique (“Statistical Sensory Examination techniques”, written by SATO Shin, published by Japan Federation of Science and Technology). The sensory evaluation was carried out as follows: Distilled water containing sodium glutamate (0.05 g/dL), inosine monophosphate (0.05 g/dL) and sodium chloride (0.5 g/dL) was used as the solution for the sensory evaluation. […] To determine the concentration of γ-Glu-Val at which the strength of taste is the same as that of a solution obtained by causing the solution for the sensory evaluation to contain 0.005 g/dL of γ-[…] solutions were prepared with a concentration that varied on a 50% logarithmic scale by using a solution obtained by causing the solution for the sensory evaluation, to contain 0.01 g/dL of γ-Glu-Val as a standard. The concentrations of γ-Glu-Val was set to 7 values ranging from 0.0030 to 0.0337 g/dL. After the test substance was dissolved, samples more acidic than the control with no added test substance were adjusted, before further use, with NaOH to have a pH in a range of ±0.2 as compared to the pH of the control with no added test substance. The solutions were presented to eighteen panelists in ascending order of the γ-Glu-Val concentration. The evaluation was carried out until each panelist perceived that the strength was higher than that of the 0.005 g/dL γ-Glu-Abu solution. After a certain interval, the solutions were next presented to the eighteen panelists in descending order of the γ-Glu-Val concentration. The evaluation was carried out until each panelist perceived that the strength was lower than that of the 0.005 g/dL γ-Glu-Abu solution. In this sensory evaluation, the panelists were experienced in the development of food products. When the lower and upper threshold values were the same, there was no γ-Glu-Val concentration at which the difference between the perception that the strength was lower, and the perception that the strength was higher, was uncertain. […] Each confidence threshold (average) is an average of the lower thresholds and the upper thresholds. The point of subjective equality (PSE) of γ-Glu-Val to 50 ppm (0.0050 g/dL) of γ-Glu-Abu is expressed as follows: (the sum of the confidence threshold of the lower thresholds and that of the upper threshold value)/2.

panelists [2] = experiment: Quantitative sensory evaluation test of kokumi-imparting activity; assay type: in vivo, human
Protocol: This quantitative sensory evaluation test was carried out as follows: The strength of the kokumi-imparting activity was measured for the cases where the test compound was mixed at concentrations of 0.001 to 0.5 g/dL with distilled water containing sodium glutamate (0.05 g/dL), inosine monophosphate (0.05 g/dL), and sodium chloride (0.5 g/dL). After the test compound was dissolved, samples more acidic than a control with no added test compound were adjusted, before further use, with NaOH to have a pH in a range of ±0.2 from the pH of the control with no added test compound. The sensory evaluation scores were as follows: control: 0 points; strong: 3 points; very strong: 5 points. The sensory evaluation was carried out using n (the number of panelists)=4. Moreover, to clarify the scale, the initial taste and the middle/after taste of γ-[…] at 0.001 g/dL were both set as 3.0 points. The term “middle/after taste” refers to the taste perceived during the period which includes the middle taste and the after taste. For the scoring, a linear scale method was employed. In this method, the score was marked as a position on a straight line showing positions for scores ranging from -5 0 5.

[3] = 0.005 g/dL in water with MSG 0.05, IMP 0.05, NaCl 0.5 g/dL, scale -5~0~5, n=4

CC[C@H](NC(=O)CC[C@H](N)C(=O)O)C(=O)O
Strength of γ-Glu-Abu relative to γ-Glu-Val (panelists [1]): approximately 2.4 times | Strength of Kokumi Impartment, Initial Taste (panelists [2]; [3]): 3.8 points | Strength of Kokumi Impartment, Middle/After Taste (panelists [2]; [3]): 3.2 points | Kokumi-imparting potency (in words) (panelists [2]; in vivo): extremely high potency; also recorded: excellent kokumi-imparting activity
